Experimental data: patent US20230285310A1, “COMPOSITIONS FOR THE DELIVERY OF PAYLOAD MOLECULES TO AIRWAY EPITHELIUM” (ModernaTX, Inc., priority 2020, published 2023)
Counter-ions that a name gives are not always drawn.

Columns and labels:
HeLa cells = assay: Protein expression assay in HeLa cells (One-Glo luciferase, NPI-Luc mRNA); assay type: cell-based, human; details: 5 h, no serum, 4 wells, sterol amine post-added to LNP core Compound 18, DSPC, Cholesterol plus DMG-PEG 2K (SA3, SA11, SA24, SA26, SA39, SA32), plus Compound 428 (SA4, SA6, SA10, SA16), or plus β-sitosterol and DMG-PEG 2K (SA23, SA29, SA30, SA31)
Description: To evaluate protein expression In Vitro, HeLa cells from ATCC.org (ATCC CCL-2) are used. The cells are cultured in complete Minimum Essential Medium (MEM) and are plated in 96 well Cell Carrier Ultra plate with PDL coated surface (PerkinElmer) prior to running an experiment.
LNPs encapsulating NPI-Luc mRNA were dosed with MEM media in the absence of serum. LNP transfected cell were incubated for 5 h post LNP transfection, the cells were imaged live using Opera Phoenix spinning disk confocal microscope (PerkinElmer). Cells were detected using DAPI (405 nm channel), and image analysis was performed in Harmony 4.9, to quantify the number of cells. After imaging the cells were processed with One-Glo Luciferase assay (Promega) to quantify protein expression. Results were reported in relative luminescence units (RLU) normalized to cells counts.
LNPs were prepared according to Example 2 using NPI-Luc as the mRNA construct. NPI-Luc is a dual read reporter made by adding a 5xV5 tag and a C-myc nuclear localization sequence at the N-terminus of Firefly Luciferase to enhance the signal to noise ratio. Protein expression can be detected using OneGLo assays with luminescence readout or by immunofluorescence with anti-V5 antibodies. Protein expression was evaluated according to the procedure outlined in Example 7. The LNPs are dosed in 4 wells and the average response was reported. For the HeLa assay the luminescence read (RLU) were normalized to cell counts.

respiratory epithelium [1] = assay: LNP protein expression in mouse after single dose of mRNA-LNP by intratracheal delivery (anti-V5 IHC); assay type: in vivo; details: intratracheal instillation, ~0.7 mpk, NPI-Luc mRNA, core with β-sitosterol for SA23, SA31
Description: (§1) Animals are anesthetized under isoflurane. The tongue is displaced and a small diameter cannula is inserted into the trachea (oropharyngeal route). The cannula tip is passed through the vocal chords, down the trachea so that the tip is very near, but not touching, the carina. Upon placement, 50 μL (mouse) or 200 μL (rat) of formulation is infused into the lungs. After 30 seconds upright, animals are released into a recovery cage and returned to their respective cages once recovered. Trachea, lungs and for the aerosol study nasal cavities, nasopharynx and larynx are collected for analysis. Lungs are inflated with 10% NBF fixative and trachea tied off to maintain inflation. Lungs are removed en bloc with attached trachea, bronchi and lobes. Whole lungs en bloc are fixed in 10% NBF at room temperature for at least 24 hours with a maximum of 48 hours and then removed from fixative and placed in PBS. Samples are immediately sent to be processed for paraffin 5-micron sections and H&E staining. IHC was performed on FFPE sections using the Leica Bond RX autostainer. […] Images were imaged at 20× magnification with the Panoramic 250 Flash III whole slide scanner. Image analysis was completed with Indica Labs HALO image analysis software. […] LNPs were prepared according to Example 2 using NPI-Luc as the mRNA construct. LNPs were delivered to mice by intratracheal instillation for a dose of ˜0.7 mpk. LNP protein expression in respiratory epithelium was evaluated according to sample collection and assay procedures A and B. The results are shown in Table 13a.

respiratory epithelium [2] = assay: LNP protein expression in rat after single dose of mRNA-LNP by intratracheal delivery (anti-V5 IHC); assay type: in vivo; details: intratracheal instillation, ~1.2 mpk, NPI-Luc mRNA, core with β-sitosterol for SA23
Description: as §1, with “LNPs were delivered to mice by intratracheal instillation for a dose of ˜0.7 mpk.” left out, “13b.” for “13a.”

| SMILES | Average protein expression per cell (RLU per cell) (HeLa cells) | also measured |
| --- | --- | --- |
| CC(C)CCC[C@@H](C)[C@H]1CC[C@H]2[C@@H]3CC=C4C[C@@H](OC(=O)NCCN(C)CCO)CC[C@]4(C)[C@H]3CC[C@]12C [SA6, (3S,8S,9S,10R,13R,14S,17R)-10,13-dimethyl-17-((R)-6-methylheptan-2-yl)-2,3,4,7,8,9,10,11,12,13,14,15,16,17-tetradecahydro-1H-cyclopenta[a]phenanthren-3-yl (2-((2-hydroxyethyl)(methyl)amino)ethyl)carbamate] | 196.2 RLU per cell | – |
| CC[C@H](CC[C@@H](C)[C@H]1CC[C@H]2[C@@H]3CC=C4C[C@@H](OC(=O)NCCN(C)C)CC[C@]4(C)[C@H]3CC[C@]12C)C(C)C [SA10, (3S,8S,9S,10R,13R,14S,17R)-17-((2R,5R)-5-Ethyl-6-methylheptan-2-yl)-10,13-dimethyl-2,3,4,7,8,9,10,11,12,13,14,15,16,17-tetradecahydro-1H-cyclopenta[a]phenanthren-3-yl (2-(dimethylamino)ethyl)carbamate] | 236.6 RLU per cell | – |
| CC(C)CCC[C@@H](C)[C@H]1CC[C@H]2[C@@H]3CC=C4C[C@@H](OC(=O)CCc5cnc[nH]5)CC[C@]4(C)[C@H]3CC[C@]12C [SA11, (3S,8S,9S,10R,13R,14S,17R)-10,13-dimethyl-17-((R)-6-methylheptan-2-yl)-2,3,4,7,8,9,10,11,12,13,14,15,16,17-tetradecahydro-1H-cyclopenta[a]phenanthren-3-yl 3-(1H-imidazol-5-yl)propanoate, hydrochloride salt] | 5.3 RLU per cell | – |
| CC(C)CCC[C@@H](C)[C@H]1CC[C@H]2[C@@H]3CC=C4C[C@@H](OC(=O)NCCNC(=N)N)CC[C@]4(C)[C@H]3CC[C@]12C [SA23, (3S,8S,9S,10R,13R,14S,17R)-10,13-dimethyl-17-((R)-6-methylheptan-2-yl)-2,3,4,7,8,9,10,11,12,13,14,15,16,17-tetradecahydro-1H-cyclopenta[a]phenanthren-3-yl (2-guanidinoethyl)carbamate, hydrochloride salt] | 868.8 RLU per cell | Average % V5 positive cells/total cells (respiratory epithelium [1]; Mouse Bronchi (left lung)): 0.98%; Average % V5 positive cells/total cells (respiratory epithelium [1]; Mouse Trachea): 0.8%; Average % V5 positive cells/total cells (respiratory epithelium [2]; Rat Bronchi (left and right lung)): 1.38%; Average % V5 positive cells/total cells (respiratory epithelium [2]; Rat Trachea): 0.83% |
| CC(C)CCC[C@@H](C)[C@H]1CC[C@H]2[C@@H]3CC=C4C[C@@H](OC(=O)CCC(=O)N(CCCN(C)C)CCCN(C)C)CC[C@]4(C)[C@H]3CC[C@]12C [SA24, (3S,8S,9S,10R,13R,14S,17R)-10,13-Dimethyl-17-((R)-6-methylheptan-2-yl)-2,3,4,7,8,9,10,11,12,13,14,15,16,17-tetradecahydro-1H-cyclopenta[a]phenanthren-3-yl 4-(bis(3-(dimethylamino)propyl)amino)-4-oxobutanoate dihydrochloride] | 457.2 RLU per cell | – |
| CC(C)CCC[C@@H](C)[C@H]1CC[C@H]2[C@@H]3CC=C4C[C@@H](OC(=O)NCCNc5c(NCCCN(C)C)c(=O)c5=O)CC[C@]4(C)[C@H]3CC[C@]12C [SA26, (3S,8S,9S,10R,13R,14S,17R)-10,13-dimethyl-17-((R)-6-methylheptan-2-yl)-2,3,4,7,8,9,10,11,12,13,14,15,16,17-tetradecahydro-1H-cyclopenta[a]phenanthren-3-yl (2-((2-((3-(dimethylamino)propyl)amino)-3,4-dioxocyclobut-1-en-1-yl)amino)ethyl)carbamate, hydrochloride salt] | 84.3 RLU per cell | – |
| CC(C)CCC[C@@H](C)[C@H]1CC[C@H]2[C@@H]3CC=C4C[C@@H](OC(=O)N(CCCN)CCCCN)CC[C@]4(C)[C@H]3CC[C@]12C [SA29, (3S,8S,9S,10R,13R,14S,17R)-10,13-Dimethyl-17-((R)-6-methylheptan-2-yl)-2,3,4,7,8,9,10,11,12,13,14,15,16,17-tetradecahydro-1H-cyclopenta[a]phenanthren-3-yl (4-aminobutyl)(3-aminopropyl)carbamate dihydrochloride] | 550.3 RLU per cell | – |
| CC(C)CCC[C@@H](C)[C@H]1CC[C@H]2[C@@H]3CC=C4C[C@@H](OC(=O)NCCCNCCCCN)CC[C@]4(C)[C@H]3CC[C@]12C [SA30, (3S,8S,9S,10R,13R,14S,17R)-10,13-Dimethyl-17-((R)-6-methylheptan-2-yl)-2,3,4,7,8,9,10,11,12,13,14,15,16,17-tetradecahydro-1H-cyclopenta[a]phenanthren-3-yl (3-((4-aminobutyl)amino)propyl)carbamate dihydrochloride] | 648.3 RLU per cell | – |
| CC(C)CCC[C@@H](C)[C@H]1CC[C@H]2[C@@H]3CC=C4C[C@@H](OC(=O)CCC(=O)N(CCCN)CCCCN)CC[C@]4(C)[C@H]3CC[C@]12C [SA31, (3S,8S,9S,10R,13R,14S,17R)-10,13-Dimethyl-17-((R)-6-methylheptan-2-yl)-2,3,4,7,8,9,10,11,12,13,14,15,16,17-tetradecahydro-1H-cyclopenta[a]phenanthren-3-yl 4-((4-aminobutyl)(3-aminopropyl)amino)-4-oxobutanoate dihydrochloride] | 643.6 RLU per cell | Average % V5 positive cells/total cells (respiratory epithelium [1]; Mouse Bronchi (left lung)): 10.52%; Average % V5 positive cells/total cells (respiratory epithelium [1]; Mouse Trachea): 27.07% |
| CC(C)CCC[C@@H](C)[C@H]1CC[C@H]2[C@@H]3CC=C4C[C@@H](OC(=O)CC5CN6CCC5CC6)CC[C@]4(C)[C@H]3CC[C@]12C (stereo partly drawn) [SA32, (3S,8S,9S,10R,13R,14S,17R)-10,13-Dimethyl-17-((R)-6-methylheptan-2-yl)-2,3,4,7,8,9,10,11,12,13,14,15,16,17-tetradecahydro-1H-cyclopenta[a]phenanthren-3-yl 2-(quinuclidin-3-yl)acetate] | 301.8 RLU per cell | – |
| CC(C)CCC[C@@H](C)[C@H]1CC[C@H]2[C@@H]3CC=C4C[C@@H](SSCCC(=O)N(CCCN)CCCCNCCCN)CC[C@]4(C)[C@H]3CC[C@]12C [SA39, N-(3-Aminopropyl)-N-(4-((3-aminopropyl)amino)butyl)-3-(((3S,8S,9S,10R,13R,14S,17R)-10,13-dimethyl-17-((R)-6-methylheptan-2-yl)-2,3,4,7,8,9,10,11,12,13,14,15,16,17-tetradecahydro-1H-cyclopenta[a]phenanthren-3-yl)disulfaneyl)propanamide trihydrochloride] | 201.9 RLU per cell | – |
